The record followed here is patent publication US20240158446A1, “CYCLIC COMPOUND HAVING SELECTIVE INHIBITORY ACTION ON KRAS OVER HRAS AND NRAS” (CHUGAI SEIYAKU KABUSHIKI KAISHA, priority 2021, published 2024).

Test [1] deals with GDP-bound KRAS wild-type protein (Homo sapiens, UniProt P01116). Briefly: Binding to KRAS by surface plasmon resonance (SPR), Single Cycle Kinetics. As to conditions: GDP-bound KRAS wild-type protein, read-out: KRAS KD. A general note: SPR reads the build-up and loss of mass on a sensor chip optically.
GDP-bound KRAS wild-type protein, sequence (P01116 whole entry): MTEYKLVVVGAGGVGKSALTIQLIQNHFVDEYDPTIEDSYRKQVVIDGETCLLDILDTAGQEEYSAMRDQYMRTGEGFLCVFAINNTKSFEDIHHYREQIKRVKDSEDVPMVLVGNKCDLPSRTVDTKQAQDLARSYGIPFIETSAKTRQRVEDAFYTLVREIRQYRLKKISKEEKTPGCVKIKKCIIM
Test [2] has as its target GDP-bound NRAS wild-type protein (Homo sapiens, UniProt P01111). Put plainly: Binding to NRAS by surface plasmon resonance (SPR), Single Cycle Kinetics. As to conditions: for NRAS/KRAS (ratio of KD value with respect to NRAS to KD value with respect to KRAS) / NRAS/KRAS (ratio of KD value for NRAS to KD value for KRAS): SPR, GDP-bound NRAS wild-type protein vs GDP-bound KRAS wild-type protein.

Test [3] deals with GDP-bound HRAS wild-type protein (Homo sapiens, UniProt P01112). Put plainly: Binding to HRAS by surface plasmon resonance (SPR), Single Cycle Kinetics. As to conditions: for HRAS/KRAS (ratio of KD value with respect to HRAS to KD value with respect to KRAS) / HRAS/KRAS (ratio of KD value for HRAS to KD value for KRAS): SPR, GDP-bound HRAS wild-type protein vs GDP-bound KRAS wild-type protein.
GDP-bound HRAS wild-type protein, sequence (P01112 whole entry): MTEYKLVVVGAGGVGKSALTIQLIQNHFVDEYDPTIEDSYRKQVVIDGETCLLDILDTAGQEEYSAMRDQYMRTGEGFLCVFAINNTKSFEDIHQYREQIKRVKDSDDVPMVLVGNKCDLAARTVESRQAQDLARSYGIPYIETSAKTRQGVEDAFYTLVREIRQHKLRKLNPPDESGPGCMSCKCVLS

The mark [4] stands for this setting: SPR Single Cycle Kinetics, 1:1 binding model.

SMILES strings stand for the structures. Where two headings read alike, the source gives them in different places. Where a SMILES comes first, the peptide text is derived from it. Bridges are numbered along the chain shown (N, C = ends). [ ]: non-standard residue; d: D form. The star is where a group is joined. hPhe(3-Cl-4-CF3) = N[C@@H](CCc1ccc(C(F)(F)F)c(Cl)c1)C(=O)O; NPrPhe(4-CF3) = CCCN[C@@H](Cc1ccc(C(F)(F)F)cc1)C(=O)O; hPhe(3,4-Cl2) = N[C@@H](CCc1ccc(Cl)c(Cl)c1)C(=O)O; NMeGly(cPent) = CN[C@H](C(=O)O)C1CCCC1; Pro(4,4-F2) = O=C(O)[C@@H]1CC(F)(F)CN1; NMeD = CN[C@@H](CC(=O)O)C(=O)O; NMeL = CN[C@@H](CC(C)C)C(=O)O; Morpholide = C1CN(*)CCO1; Ac5c = NC1(C(=O)O)CCCC1; Sar = CNCC(=O)O

GDP-bound NRAS wild-type protein, sequence (P01111 whole entry): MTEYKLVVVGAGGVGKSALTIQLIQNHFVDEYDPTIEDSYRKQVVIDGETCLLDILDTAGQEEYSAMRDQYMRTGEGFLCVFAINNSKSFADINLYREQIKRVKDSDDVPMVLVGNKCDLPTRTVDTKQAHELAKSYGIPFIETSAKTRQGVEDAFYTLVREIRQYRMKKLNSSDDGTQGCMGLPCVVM

In the case of `CCC[C@H]1C(=O)N[C@@H]([C@@H](C)CC)C(=O)N(C)CC(=O)N(C)[C@H]2C/C=C\CCN(C2=O)[C@@H](Cc2ccc(C(F)(F)F)cc2)C(=O)N(C)CC(=O)N[C@@H](CCc2ccc(C(F)(F)F)c(OC)c2)C(=O)N2CCCCC[C@H]2C(=O)NC2(CC(C)(C)C2)C(=O)N(C)[C@@H](C(CC)CC)C(=O)N(C)[C@H](C(=O)N(C)C)CC(=O)N1C` [PP2968], in test [1] (setting [4]), the Kd is 0.55 nM. For the same compound, the “NRAS/KRAS (ratio of KD value with respect to GDP-bound NRAS wild-type protein to KD value with respect to KRAS)” value in test [2] (SPR KD ratio NRAS/KRAS, class symbols) is given as “AA (a compound having 20 or more is denoted as AA)”. Besides, the “HRAS/KRAS (ratio of KD value with respect to GDP-bound HRAS wild-type protein to KD value with respect to KRAS)” value in test [3] (SPR KD ratio HRAS/KRAS, class symbols) was “A (a compound having 10 or more and less than 20 is denoted as A)”.

For `CCCN1C(=O)CN(C)C(=O)CN(C)C(=O)[C@H]([C@@H](C)CC)NC(=O)[C@H](CC(C)C)N(C)C(=O)C[C@@H](C(=O)N(C)C)N(C)C(=O)[C@H](C2CCCC2)N(C)C(=O)C2(CCCC2)NC(=O)[C@@H]2CC(F)(F)CN2C(=O)[C@H](CCc2ccc(C(F)(F)F)c(Cl)c2)NC(=O)CN(C)C(=O)[C@@H]1Cc1ccc(C(F)(F)F)cc1` [PP0413] ([NMeL]I[Sar][Sar][NPrPhe(4-CF3)][Sar][hPhe(3-Cl-4-CF3)][Pro(4,4-F2)][Ac5c][NMeGly(cPent)][NMeD]-NMe2; lactam N-11), in test [1] (setting [4]), the Kd came out at 0.049 nM. Also, in test [2], the “NRAS/KRAS (ratio of KD value with respect to NRAS to KD value with respect to KRAS)” value is “C (A compound having a KD ratio of 0.1 or more and less than 3 is denoted as C)”. For the same compound, in test [3], the “HRAS/KRAS (ratio of KD value with respect to HRAS to KD value with respect to KRAS)” value was “C (A compound having a KD ratio of 0.1 or more and less than 3 is denoted as C)”.

For `CCC[C@H]1C(=O)N[C@@H](C2CCCC2)C(=O)N(C)CC(=O)N(C)[C@H]2C/C=C\CCN(C2=O)[C@@H](Cc2ccc(C)cc2)C(=O)N(C)CC(=O)N[C@@H](CCc2ccc(C(F)(F)F)c(Cl)c2)C(=O)N2C[C@H](OCC)C[C@H]2C(=O)NC2(CC(C)(C)C2)C(=O)N(C)[C@@H](CC(C)(C)C)C(=O)N(C)[C@H](C(=O)N(C)C)CC(=O)N1C` [PP2196], the Kd in test [1] (SPR, Single Cycle Kinetics) turned out to be 0.24 nM. The “NRAS/KRAS (ratio of KD value for NRAS to KD value for KRAS)” value in test [2] was “A (a compound having 10 or more and less than 20 is denoted as A)”. For the same compound, in test [3], the “HRAS/KRAS (ratio of KD value for HRAS to KD value for KRAS)” value was “B (a compound having 3 or more and less than 10 is denoted as B)”.

`CCO[C@@H]1C[C@H]2C(=O)NC3(CCC3)C(=O)N(C)[C@@H](C3CCCC3)C(=O)N(C)[C@H](C(=O)N(C)C)CC(=O)N(C)[C@@H](CC)C(=O)N[C@@H]([C@@H](C)CC)C(=O)N(C)CC(=O)N(C)[C@H]3CCCCCN(C3=O)[C@@H](Cc3ccc(F)c(Cl)c3)C(=O)N(C)CC(=O)N[C@@H](CCc3cc(F)c(C(F)(F)F)c(F)c3)C(=O)N2C1` [PP0909]: in test [1] (SPR, Single Cycle Kinetics), the Kd was 0.48 nM. Moreover, the “NRAS/KRAS (ratio of KD value for NRAS to KD value for KRAS)” value in test [2] is “B (a compound having 3 or more and less than 10 is denoted as B)”. In test [3], the “HRAS/KRAS (ratio of KD value for HRAS to KD value for KRAS)” value is “B (a compound having 3 or more and less than 10 is denoted as B)”.

For the compound `CCCN1C(=O)CN(C)C(=O)CN(C)C(=O)[C@H]([C@@H](C)CC)NC(=O)[C@H](CC(C)C)N(C)C(=O)C[C@@H](C(=O)N2CCOCC2)N(C)C(=O)[C@H](C2CCCC2)N(C)C(=O)C2(CCCC2)NC(=O)[C@@H]2CCCN2C(=O)[C@H](CCc2ccc(Cl)c(Cl)c2)NC(=O)CN(C)C(=O)[C@@H]1Cc1ccc(C(F)(F)F)cc1` [PP0232] ([NMeL]I[Sar][Sar][NPrPhe(4-CF3)][Sar][hPhe(3,4-Cl2)]P[Ac5c][NMeGly(cPent)][NMeD]-Morpholide; lactam N-11), the Kd in test [1] (setting [4]) turned out to be 0.28 nM. Besides, the “NRAS/KRAS (ratio of KD value for NRAS to KD value for KRAS)” value in test [2] is “B (a compound having 3 or more and less than 10 is denoted as B)”. Moreover, the “HRAS/KRAS (ratio of KD value for HRAS to KD value for KRAS)” value in test [3] was “B (a compound having 3 or more and less than 10 is denoted as B)”.

Turning to `CC[C@H](C)[C@@H]1NC(=O)[C@H](CC(C)C)N(C)C(=O)C[C@@H](C(=O)N2CCOCC2)N(C)C(=O)[C@H](C2CCCC2)N(C)C(=O)C2(CCCC2)NC(=O)[C@@H]2CCCN2C(=O)[C@H](CCc2cc(F)c(C(F)(F)F)c(F)c2)NC(=O)CN(C)C(=O)[C@H](Cc2ccc(C(F)(F)F)cc2)N2CCCCC[C@@H](C2=O)N(C)C(=O)CN(CC)C1=O` [PP0483], the Kd in test [1] (setting [4]) was determined as 34 nM. Besides, the “NRAS/KRAS (ratio of KD value with respect to NRAS to KD value with respect to KRAS)” value in test [2] is “B (a compound having 3 or more and less than 10 is denoted as B)”. Also, the “HRAS/KRAS (ratio of KD value with respect to HRAS to KD value with respect to KRAS)” value in test [3] is “B (a compound having 3 or more and less than 10 is denoted as B)”.

The term Kd denotes the constant that tells how readily two partners part at equilibrium.
